Measured values taken from US10507193B2, “Ultra low dose doxepin and methods of using the same to treat sleep disorders” (Pernix Sleep, Inc., priority 2006, dated 2019).

How the values were obtained:
Type in all cases: in vivo, human
[1] = test system: patient suffering from chronic insomnia; test: Patient with chronic insomnia prescribed ultra low dose doxepin prior to bedtime
From the text: A patient suffers from chronic insomnia. The patient is otherwise healthy with normal affect with no depression, anxiety or substance overuse. The patient is prescribed doxepin in a daily dosage of 0.4 milligrams prior to bedtime. […] A patient suffers from chronic insomnia. The patient is otherwise healthy with normal affect with no depression, anxiety or substance overuse. The patient is prescribed doxepin in a daily dosage of 0.2 milligrams prior to bedtime. […] A patient suffers from chronic insomnia. The patient is otherwise healthy with normal affect with no depression, anxiety or substance overuse. The patient is prescribed doxepin in a daily dosage of 0.02 milligrams prior to bedtime. […] A patient suffers from chronic insomnia. The patient is otherwise healthy with normal affect with no depression, anxiety or substance overuse. The patient is prescribed doxepin in a daily dosage of 0.007 milligrams prior to bedtime. […] A patient suffers from chronic insomnia. The patient is otherwise healthy with normal affect with no depression, anxiety or substance overuse. The patient is prescribed doxepin in a daily dosage of 0.009 milligrams prior to bedtime. […] A patient suffers from chronic insomnia. The patient is otherwise healthy with normal affect with no depression, anxiety or substance overuse. The patient is prescribed doxepin in a daily dosage of 0.0002 milligrams prior to bedtime. […] A patient suffers from chronic insomnia. The patient also suffers from depression. The patient is prescribed doxepin in a daily dosage of 0.5 milligram prior to bedtime. […] A patient suffers from chronic insomnia. The patient also suffers from depression. The patient is prescribed doxepin in a daily dosage of 0.03 milligrams prior to bedtime. […] A patient suffers from chronic insomnia. The patient also suffers from depression. The patient is prescribed doxepin in a daily dosage of 0.05 milligrams prior to bedtime. […] A patient suffers from chronic insomnia. The patient also suffers from depression. The patient is prescribed doxepin in a daily dosage of 0.004 milligrams prior to bedtime. […] A patient suffers from chronic insomnia. The patient also suffers from depression. The patient is prescribed doxepin in a daily dosage of 0.0001 milligrams prior to bedtime. […] A patient suffers from chronic insomnia. The patient also suffers from depression. The patient is prescribed doxepin in a daily dosage of 0.0009 milligrams prior to bedtime.

[2] = test system: patient suffering from a sleep disorder; test: Patient with a sleep disorder prescribed ultra low dose doxepin, salt or prodrug prior to bedtime; conditions: daily dosage 0.1 milligram prior to bedtime
From the text: A patient suffers from a sleep disorder. The patient is prescribed doxepin in a daily dosage of 0.1 milligram prior to bedtime. […] A patient suffers from a sleep disorder. The patient is prescribed a pharmaceutically acceptable salt of doxepin in a daily dosage of 0.3 milligrams prior to bedtime. […] A patient suffers from a sleep disorder. The patient is prescribed a pharmaceutically acceptable salt of doxepin in a daily dosage of 0.009 milligrams prior to bedtime. […] A patient suffers from a sleep disorder. The patient is prescribed a pharmaceutically acceptable salt of doxepin in a daily dosage of 0.006 milligrams prior to bedtime. […] A patient suffers from a sleep disorder. The patient is prescribed a pharmaceutically acceptable salt of doxepin in a daily dosage of 0.0007 milligrams prior to bedtime. […] A patient suffers from a sleep disorder. The patient is prescribed a prodrug of doxepin in a daily dosage of 0.1 milligrams prior to bedtime. […] A patient suffers from a sleep disorder. The patient is prescribed a prodrug of doxepin in a daily dosage of 0.0006 milligrams prior to bedtime. […] A patient suffers from a sleep disorder. The patient is prescribed a prodrug of doxepin in a daily dosage of 0.05 milligrams prior to bedtime. […] A patient suffers from a sleep disorder. The patient is prescribed a prodrug of doxepin in a daily dosage of 0.004 milligrams prior to bedtime. […]

[3] = test system: patient suffering from transient or short term insomnia; test: Patient with transient or short term insomnia prescribed ultra low dose doxepin prior to bedtime
From the text: A patient suffers from transient or short term insomnia. The patient is otherwise healthy with normal affect with no depression, anxiety or substance overuse. The patient is prescribed doxepin in a daily dosage of 0.4 milligrams, prior to bedtime. […] A patient suffers from transient or short term insomnia. The patient is otherwise healthy with normal affect with no depression, anxiety or substance overuse. The patient is prescribed doxepin in a daily dosage of 0.08 milligrams, prior to bedtime. […] A patient suffers from transient or short term insomnia. The patient is otherwise healthy with normal affect with no depression, anxiety or substance overuse. The patient is prescribed doxepin in a daily dosage of 0.009 milligrams, prior to bedtime. […] A patient suffers from transient or short term insomnia. The patient is otherwise healthy with normal affect with no depression, anxiety or substance overuse. The patient is prescribed doxepin in a daily dosage of 0.0005 milligrams prior to bedtime. […] A patient suffers from transient or short term insomnia. The patient also suffers from depression. The patient is prescribed doxepin in a daily dosage of 0.3 milligrams, prior to bedtime. […] A patient suffers from transient or short term insomnia. The patient also suffers from depression. The patient is prescribed doxepin in a daily dosage of 0.1 milligrams, prior to bedtime. […] A patient suffers from transient or short term insomnia. The patient also suffers from depression. The patient is prescribed doxepin in a daily dosage of 0.006 milligrams, prior to bedtime. […] A patient suffers from transient or short term insomnia. The patient is otherwise healthy with normal affect with no depression, anxiety or substance overuse. The patient is prescribed doxepin in a daily dosage of 0.008 milligrams, prior to bedtime. […] A patient suffers from transient or short term insomnia. The patient also suffers from depression. The patient is prescribed doxepin in a daily dosage of 0.001 milligrams, prior to bedtime. […] A patient suffers from transient or short term insomnia. The patient also suffers from depression. The patient is prescribed doxepin in a daily dosage of 0.0003 milligrams prior to bedtime.

[4] = otherwise healthy, no depression, daily dosage 0.009 milligrams prior to bedtime
[5] = otherwise healthy, no depression, daily dosage 0.4 milligrams prior to bedtime

Measured: relief of insomnia

CN(C)CCC=C1c2ccccc2COc2ccccc21 [doxepin, 11-(3-dimethylaminopropylidene)-6,11-dihydrodibenzo-[b,e]-oxepine]
relieves the insomnia: [1]; otherwise healthy, no depression, daily dosage 0.0002 milligrams prior to bedtime | [1]; otherwise healthy, no depression, daily dosage 0.007 milligrams prior to bedtime | [1]; [4] | [1]; otherwise healthy, no depression, daily dosage 0.02 milligrams prior to bedtime | [1]; otherwise healthy, no depression, daily dosage 0.2 milligrams prior to bedtime | [1]; [5] | [1]; patient also suffers from depression, daily dosage 0.0001 milligrams prior to bedtime | [1]; patient also suffers from depression, daily dosage 0.0009 milligrams prior to bedtime | [1]; patient also suffers from depression, daily dosage 0.004 milligrams prior to bedtime | [1]; patient also suffers from depression, daily dosage 0.03 milligrams prior to bedtime | [1]; patient also suffers from depression, daily dosage 0.05 milligrams prior to bedtime | [1]; patient also suffers from depression, daily dosage 0.5 milligram prior to bedtime | [2] | [3]; otherwise healthy, no depression, daily dosage 0.0005 milligrams prior to bedtime | [3]; otherwise healthy, no depression, daily dosage 0.008 milligrams prior to bedtime | [3]; [4] | [3]; otherwise healthy, no depression, daily dosage 0.08 milligrams prior to bedtime | [3]; [5] | [3]; patient also suffers from depression, daily dosage 0.0003 milligrams prior to bedtime | [3]; patient also suffers from depression, daily dosage 0.001 milligrams prior to bedtime | [3]; patient also suffers from depression, daily dosage 0.006 milligrams prior to bedtime | [3]; patient also suffers from depression, daily dosage 0.1 milligrams prior to bedtime | [3]; patient also suffers from depression, daily dosage 0.3 milligrams prior to bedtime
